“And” between values parts separate entries of the source, which are not always exact repeats. Equal values may be shown once. After the bases stand the sugars from the 5' end (letter, count) and the backbone: PS all phosphorothioate, else s phosphorothioate and o phosphodiester by linkage. Methylation of C is not given here. e = 2'-O-(2-methoxyethyl) (MOE); k = constrained ethyl (cEt); d = 2'-deoxy (DNA)
Molecular target: IRF4
Settings: ASO

Row | Sequence | target mRNA inhibition (SK-MEL-28, 4 µM) | target mRNA inhibition (MM.1R, 1 µM) | other results
1 | ACGCGCGGAGGACCTC (sugars k3 d10 k3, PS) | 13% | – | –
2 | ACGCTTGCAGCTCTGA (sugars k3 d10 k3, PS) | 48% | – | –
3 | ACGGAAGTTTACACTG (sugars k2 d9 e3 k2, PS) | – | 15% | –
4 | ACGGAAGTTTACACTG (sugars k3 d9 k3 e1, PS) | – | 29% | –
5 | ACGGAAGTTTACACTG (sugars kdddddddddkekeke, PS) | – | 2% | –
6 | ACGGAAGTTTACACTG (sugars kkkddddddddkekek, PS) | – | 14% | –
7 | ACGTGTGCTTGCCAAG (sugars k2 d9 e3 k2, PS) | – | 44% and 43% | –
8 | ACGTGTGCTTGCCAAG (sugars k3 d10 k3, PS) | – | 54% and 55% | –
9 | ACGTGTGCTTGCCAAG (sugars kddddddddddkekek, PS) | – | 47% and 37% | –
10 | ACGTGTGCTTGCCAAG (sugars kkdddddddddekeke, PS) | – | 59% and 61% | –
11 | ACTACCTGCAGCCAAG (sugars k3 d10 k3, PS) | – | 4% | –
12 | ACTATAATTGGCACGA (sugars k3 d10 k3, PS) | 69% | – | target mRNA inhibition (SK-MEL-28, 0.185 µM): 6%; target mRNA inhibition (SK-MEL-28, 5 µM): 72%; target mRNA inhibition (SK-MEL-28, 15 µM): 90%
13 | ACTATGGTAGGAGTGT (sugars k3 d10 k3, PS) | 25% | – | –
14 | ACTATTAAGAACTTGC (sugars k3 d10 k3, PS) | 21% | – | –
15 | ACTCAATGTGCACCTT (sugars k3 d10 k3, PS) | 29% | – | –
16 | ACTGAACCATGTTCCT (sugars k3 d10 k3, PS) | 51% | – | –
17 | ACTGACTAACAGGGAG (sugars k3 d10 k3, PS) | 49% | – | –
18 | ACTGCTGTGTGTCAAA (sugars k3 d10 k3, PS) | -6% | – | –
19 | ACTGCTTGAGGTTTTC (sugars k3 d10 k3, PS) | 58% | – | –
20 | ACTGCTTGAGGTTTTC (sugars kdddddddddkekeke, PS) | – | 21% | –
21 | ACTGCTTGAGGTTTTC (sugars kkddddddddddkeke, PS) | – | 21% | –
22 | ACTGCTTGAGGTTTTC (sugars kkdddddddddkekek, PS) | – | 24% | –
23 | ACTGCTTGAGGTTTTC (sugars kkkdddddddddkeke, PS) | – | 38% | –
24 | ACTGGATCTGAATTGT (sugars k3 d10 k3, PS) | 57% | – | –
25 | ACTGGCATTGAGACGG (sugars k3 d10 k3, PS) | 72% and 79% | – | –
26 | ACTGGGTACATGGCAG (sugars k3 d10 k3, PS) | 59% | – | –
27 | ACTGTATGGAACCCCA (sugars k3 d10 k3, PS) | – | 30% | –

Row | Sequence | target mRNA inhibition (SK-MEL-28, 4 µM) | target mRNA inhibition (MM.1R, 1 µM) | other results
28 | ACTGTTAAAGCAGCAT (sugars k3 d10 k3, PS) | 71% | – | –
29 | ACTGTTTTAAGAGGCG (sugars k3 d10 k3, PS) | 68% and 70% | – | –
30 | ACTTAAAATCCACACC (sugars k3 d10 k3, PS) | 7% | – | –
31 | ACTTATAGCACTCTCC (sugars k3 d10 k3, PS) | – | 1% | –
32 | ACTTGTGACCCACATA (sugars k3 d10 k3, PS) | – | -4% | –
33 | ACTTTTAGAGAGGAGA (sugars kkdddddddddkdkdk, PS) | – | 34% | –
34 | ACTTTTAGAGAGGAGA (sugars kkkddddddddkekek, PS) | – | 21% | –
35 | AGAAAACCCCCCTCTC (sugars k3 d10 k3, PS) | 23% | – | –
36 | AGAAACGAGTTGACAC (sugars k3 d10 k3, PS) | 15% | – | –
37 | AGAAAGAGCTGGTAGG (sugars k3 d10 k3, PS) | 36% | – | –
38 | AGAACGAGGTAAATCT (sugars k3 d10 k3, PS) | 40% | – | –
39 | AGAAGTACGAGCACAT (sugars k3 d10 k3, PS) | 44% | – | –
40 | AGACAGACTTCCAAGA (sugars k3 d10 k3, PS) | 36% | – | –
41 | AGACAGAGAGTCCGAC (sugars k3 d10 k3, PS) | 7% | – | –
42 | AGACAGTGCGCCCCAA (sugars k3 d10 k3, PS) | – | -17% | –
43 | AGACGAAAACAGCCGC (sugars k3 d10 k3, PS) | 25% | – | –
44 | AGAGTGAGATGCGGAG (sugars k3 d10 k3, PS) | – | 65% and 63% | –
45 | AGATAACGAGGTGCCT (sugars k3 d10 k3, PS) | 23% | – | –
46 | AGATAAGAAGCACTGG (sugars k3 d10 k3, PS) | 25% | – | –
47 | AGATCTGTGGTAATCT (sugars k3 d10 k3, PS) | – | -3% | –
48 | AGATGCGGAGGTTCCT (sugars k3 d10 k3, PS) | – | 32% | –
49 | AGATGTATACATCACT (sugars k3 d10 k3, PS) | 76% and 71% | – | –
50 | AGCAAAGAGGGTCACA (sugars k3 d10 k3, PS) | 68% | – | –
51 | AGCAACACGGGAATTT (sugars k3 d10 k3, PS) | 57% | – | –
52 | AGCAAGAGCTTACTGT (sugars k3 d10 k3, PS) | – | -6% | –
53 | AGCAATTGAAATGGAG (sugars k3 d10 k3, PS) | 22% | – | –
